Where “and” joins values, the source holds several entries; their conditions need not be identical. Equal entries are not always repeated. Toxic doses and inconclusive results are not listed. Rule as the data show it: active = T/C of 150% or more; inactive = T/C below 125%.
Tested on: L1210 leukemia ip in BDF1 mice, survival T/C
Test: NCI In Vivo Anticancer Drug Screen. Data for tumor model L1210 Leukemia (intraperitoneal) in B6D2F1 (BDF1) mice
Details: endpoint: mean survival time, higher = longer survival
Outline: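 Read-out is survival time, reported as the treated-group measurement over the vehicle-control measurement.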

[1] = dose: 100.0 mg/kg/injection, schedule: Q01DX009 (ip), vehicle: saline with Tween-80
[2] = dose: 200.0 mg/kg/injection, schedule: Q01DX009 (ip), vehicle: saline with Tween-80
[3] = dose: 100.0 mg/kg/injection, schedule: Q01DX009 (ip), vehicle: Klucel (hydroxypropylcellulose) (HPC)
[4] = dose: 50.0 mg/kg/injection, schedule: Q01DX001 (ip), vehicle: saline
[5] = dose: 100.0 mg/kg/injection, schedule: Q01DX001 (ip), vehicle: saline
[6] = dose: 200.0 mg/kg/injection, schedule: Q01DX001 (ip), vehicle: saline
[7] = dose: 400.0 mg/kg/injection, schedule: Q01DX001 (ip), vehicle: saline
[8] = dose: 200.0 mg/kg/injection, schedule: Q01DX009 (ip), vehicle: Klucel (hydroxypropylcellulose) (HPC)
[9] = dose: 400.0 mg/kg/injection, schedule: Q01DX009 (ip), vehicle: Klucel (hydroxypropylcellulose) (HPC)

Measured: T/C

CC1([CH2][Hg][I])CS(=O)(=O)CC(C)([CH2][Hg][I])O1 (configuration not stated)
inactive: dose: 5.0 mg/kg/injection, schedule: Q01DX001 (ip), vehicle: saline 104 % of control | dose: 5.0 mg/kg/injection, schedule: Q01DX015 (ip), vehicle: saline 94 % of control | dose: 10.0 mg/kg/injection, schedule: Q01DX001 (ip), vehicle: saline 104 % of control | dose: 10.0 mg/kg/injection, schedule: Q01DX015 (ip), vehicle: saline 97 % of control | dose: 20.0 mg/kg/injection, schedule: Q01DX001 (ip), vehicle: saline 96 % of control | dose: 20.0 mg/kg/injection, schedule: Q01DX015 (ip), vehicle: saline 102 % of control | dose: 40.0 mg/kg/injection, schedule: Q01DX001 (ip), vehicle: saline 98 % of control | dose: 40.0 mg/kg/injection, schedule: Q01DX015 (ip), vehicle: saline 108 % of control | dose: 80.0 mg/kg/injection, schedule: Q01DX001 (ip), vehicle: saline 104 % of control

Cc1cc(C)c(C(=O)O)cc1C(=O)O
inactive: dose: 50.0 mg/kg/injection, schedule: Q01DX009 (ip), vehicle: saline with Tween-80 100 % of control | [1] 100 % of control | [2] 106 % of control

CN1CCN(C(=O)C2CCCCC2C(=O)O)CC1 (configuration not stated)
inactive: dose: 100.0 mg/kg/injection, schedule: Q04DX002 (ip), vehicle: saline 107 % of control | dose: 200.0 mg/kg/injection, schedule: Q04DX002 (ip), vehicle: saline 107 % of control | dose: 400.0 mg/kg/injection, schedule: Q04DX002 (ip), vehicle: saline 96 % of control

CCCCCCC(C)OC(=O)CCCc1ccc(N(CCCl)CCCl)cc1 (configuration not stated)
inactive: dose: 50.0 mg/kg/injection, schedule: Q01DX009 (ip), vehicle: saline 122 % of control | dose: 100.0 mg/kg/injection, schedule: Q01DX009 (ip), vehicle: saline 116 % of control | dose: 400.0 mg/kg/injection, schedule: Q01DX009 (ip), vehicle: saline 100 % of control

NC(=O)c1ccccc1OC(=O)Nc1cc([N+](=O)[O-])ccc1F
inactive: dose: 25.0 mg/kg/injection, schedule: Q01DX009 (ip), vehicle: Klucel (hydroxypropylcellulose) (HPC) 104 % of control | dose: 50.0 mg/kg/injection, schedule: Q01DX009 (ip), vehicle: Klucel (hydroxypropylcellulose) (HPC) 107 % of control | [3] 94 % of control and 92 % of control

CCOC(=O)C(C(=O)OCC)C(CC)c1ccccc1 (configuration not stated)
inactive: [1] 101 % of control | dose: 100.0 mg/kg/injection, schedule: Q04DX002 (ip), vehicle: saline with Tween-80 103 % of control | [2] 92 % of control | dose: 200.0 mg/kg/injection, schedule: Q04DX002 (ip), vehicle: saline with Tween-80 100 % of control | dose: 400.0 mg/kg/injection, schedule: Q01DX009 (ip), vehicle: saline with Tween-80 95 % of control | dose: 400.0 mg/kg/injection, schedule: Q04DX002 (ip), vehicle: saline with Tween-80 95 % of control

S=C(SSC(=S)N1CCCCC1)N1CCCCC1
inactive: dose: 100.0 mg/kg/injection, schedule: Q04DX003 (ip), vehicle: saline 104 % of control | dose: 200.0 mg/kg/injection, schedule: Q04DX003 (ip), vehicle: saline 98 % of control | dose: 400.0 mg/kg/injection, schedule: Q04DX003 (ip), vehicle: saline 101 % of control

CCCCCCCCCCCCCCNC1=C(C)C(=O)C(NCCCCCCCCCCCCCC)=C(C)C1=O
inactive: dose: 100.0 mg/kg/injection, schedule: Q01DX001 (ip), vehicle: carboxymethylcellulose (CMC) 98 % of control | dose: 200.0 mg/kg/injection, schedule: Q01DX001 (ip), vehicle: carboxymethylcellulose (CMC) 93 % of control | dose: 400.0 mg/kg/injection, schedule: Q01DX001 (ip), vehicle: carboxymethylcellulose (CMC) 89 % of control

OC1C2CCN(CC2)C1C(c1ccccc1)c1ccccc1 (configuration not stated)
inactive: dose: 25.0 mg/kg/injection, schedule: Q04DX003 (ip), vehicle: saline with Tween-80 95 % of control | dose: 50.0 mg/kg/injection, schedule: Q04DX003 (ip), vehicle: saline with Tween-80 98 % of control | dose: 100.0 mg/kg/injection, schedule: Q04DX003 (ip), vehicle: saline with Tween-80 96 % of control and 87 % of control

NC(=S)NNC=O
inactive: dose: 100.0 mg/kg/injection, schedule: Q04DX003 (ip), vehicle: Klucel (hydroxypropylcellulose) (HPC) 95 % of control | dose: 200.0 mg/kg/injection, schedule: Q04DX003 (ip), vehicle: Klucel (hydroxypropylcellulose) (HPC) 92 % of control | dose: 400.0 mg/kg/injection, schedule: Q04DX003 (ip), vehicle: Klucel (hydroxypropylcellulose) (HPC) 100 % of control

O/C(=C/C(=S)S)c1cccs1
inactive: dose: 0.78 mg/kg/injection, schedule: Q01DX009 (ip), vehicle: water 103 % of control | dose: 1.56 mg/kg/injection, schedule: Q01DX009 (ip), vehicle: water 105 % of control | dose: 3.12 mg/kg/injection, schedule: Q01DX009 (ip), vehicle: water 102 % of control | dose: 6.25 mg/kg/injection, schedule: Q01DX009 (ip), vehicle: water 95 % of control | dose: 12.5 mg/kg/injection, schedule: Q04DX003 (ip), vehicle: water 102 % of control | dose: 25.0 mg/kg/injection, schedule: Q04DX003 (ip), vehicle: water 94 % of control | dose: 50.0 mg/kg/injection, schedule: Q04DX003 (ip), vehicle: water 100 % of control

CCC1=C(C)C(=O)C2CCCCC2C1=O (configuration not stated)
inactive: dose: 100.0 mg/kg/injection, schedule: Q01DX001 (ip), vehicle: Klucel (hydroxypropylcellulose) (HPC) 105 % of control | dose: 100.0 mg/kg/injection, schedule: Q01DX009 (ip), vehicle: saline sonified 95 % of control | dose: 200.0 mg/kg/injection, schedule: Q01DX001 (ip), vehicle: Klucel (hydroxypropylcellulose) (HPC) 111 % of control | dose: 200.0 mg/kg/injection, schedule: Q01DX009 (ip), vehicle: saline sonified 97 % of control | dose: 400.0 mg/kg/injection, schedule: Q01DX001 (ip), vehicle: Klucel (hydroxypropylcellulose) (HPC) 96 % of control | dose: 400.0 mg/kg/injection, schedule: Q01DX009 (ip), vehicle: saline sonified 92 % of control

CCCCN(CCCC)C(=O)C1C=C2c3cccc4[nH]cc(c34)CC2N(C)C1 (configuration not stated)
inactive: dose: 100.0 mg/kg/injection, schedule: Q01DX009 (ip), vehicle: water 104 % of control | dose: 200.0 mg/kg/injection, schedule: Q01DX009 (ip), vehicle: water 110 % of control

O=c1cc(-c2ccccc2)oc2cc(O)cc(O)c12
inactive: [4] 100 % of control | [5] 100 % of control | [6] 100 % of control | [7] 100 % of control

c1ccc(C(=NN(CCN(N=C(c2ccccc2)c2ccccc2)c2ccccc2)c2ccccc2)c2ccccc2)cc1
inactive: [4] 101 % of control | [5] 92 % of control | [6] 86 % of control | [7] 92 % of control

Cc1ccccc1SC(=O)Nc1ccc([N+](=O)[O-])cc1Cl
inactive: [3] 96 % of control | [8] 94 % of control | [9] 94 % of control

CN=[N+]([O-])c1ccccc1
inactive: [5] 100 % of control | [6] 100 % of control | [7] 97 % of control

COc1ccc(OC)c(NC(=S)Nc2ccccc2)c1
inactive: [3] 98 % of control | [8] 97 % of control | [9] 92 % of control

ClCCOc1ccccc1
inactive: [5] 95 % of control | [6] 101 % of control

Cc1ccc(-n2c(O)c(N=Nc3ccccc3C)c(=O)n(-c3ccc(Br)cc3)c2=S)cc1
inactive: dose: 37.5 mg/kg/injection, schedule: Q01DX001 (ip), vehicle: Klucel (hydroxypropylcellulose) (HPC) 96 % of control | dose: 75.0 mg/kg/injection, schedule: Q01DX001 (ip), vehicle: Klucel (hydroxypropylcellulose) (HPC) 101 % of control | dose: 150.0 mg/kg/injection, schedule: Q01DX001 (ip), vehicle: Klucel (hydroxypropylcellulose) (HPC) 110 % of control

CN(CCO)Cc1ccc(Cl)cc1
inactive: dose: 150.0 mg/kg/injection, schedule: Q01DX015 (ip), vehicle: saline 91 % of control
